The values below are quoted from earlier work in patent EP3111929B1, “ORAL DISINTEGRATING FILM FORMULATION CONTAINING TADALAFIL AND PREPARATION METHOD THEREFOR” (Wooshin Labottach Co., Ltd., priority 2014, dated 2015).

Molecules are shown by their SMILES.

For data set [1] the following is noted: water; background statement.
Data set [2] deals with PDE5/PDE6. As to conditions: compared with sildenafil; background statement.

Take `CN1CC(=O)N2[C@H](c3ccc4c(c3)OCO4)c3[nH]c4ccccc4c3C[C@@H]2C1=O` [tadalafil, (6R, 12aR)-6-(1,3-benzodioxol-5-yl)-2,3,6,7,12,12a-hexahydro-2-methyl-pyrazino[1',2':1,6]p yrido[3,4-b]indole-1,4-dion]: in data set [1], the solubility result is “actually water-insoluble”. Besides, the “selectivity of PDE5/PDE6” value in data set [2] was “better than sildenafil”.
